Structures can show the parent of a compound that is named as a salt.
Tested on: patients with seasonal allergic rhinitis (SAR)
Assay: MP 428 study: individual symptom severity scores (runny nose, itchy nose, sneezing, congestion; 0-3 scale)
Format: in vivo, human
Details: Intent-to-Treat Population
Procedure: A two-week, randomized, double-blind study, which evaluated the effects of the co-administration of ASTELIN® (azelastine hydrochloride (HCl)) and FLONASE® (fluticasone propionate) compared to either product alone in patients with seasonal allergic rhinitis (SAR) was conducted during the 2006 Texas mountain cedar season. After a 5-day placebo lead-in period, 151 patients with moderate-to-severe allergic rhinitis symptoms were randomized to either: (1) (49 total patients) ASTELIN® (azelastine hydrochloride (HCl)) plus placebo saline nasal spray 2 sprays per nostril, 15 minutes apart, twice daily (AM & PM); (2) (50 total patients) FLONASE® (fluticasone propionate) plus placebo saline nasal spray, 2 sprays per nostril, 15 minutes apart, once daily (AM) and two sessions of placebo saline nasal spray, 2 sprays per nostril, 15 minutes apart (PM); or (3) (52 total patients) the co-administration of ASTELIN® (azelastine hydrochloride (HCl)) 2 sprays per nostril plus FLONASE® (fluticasone propionate) 2 sprays per nostril (AM), 15 minutes apart, and ASTELIN® (azelastine hydrochloride (HCl)) 2 sprays per nostril plus placebo saline nasal spray, 15 minutes apart, (PM) for a 2-week double-blind treatment period.
The primary efficacy variable was the change from baseline in the Total Nasal Symptom Score (TNSS), which comprised sneezing, itchy nose, runny nose, and nasal congestion (individual symptoms scores were assigned a value between 0 and 3, where 0=no symptoms and 3=severe symptoms). This study was not statistically designed to assess the differences between ASTELIN® and FLONASE®.
The results of the clinical trial are summarized and presented in Appendix A hereinbelow and in FIGS. 1-6. […] FIGS. 2-5 show the mean improvement in severity score (0-3 scale) from baseline for the symptoms of runny nose, itchy nose, sneezing and congestion, respectively.

CN1CCCC(n2nc(Cc3ccc(Cl)cc3)c3ccccc3c2=O)CC1 (racemic) [Azelastine, (±)-1-(2H)-phthalazinone, 4-[(4-chlorophenyl)methyl]-2-(hexahydro-1-methyl-1H-azepin-4-yl)-, mono-hydrochloride]
Percent Change from Baseline in AM and PM Combined Nasal Symptom Score: Congestion, LS Mean (Day 5): −18.24%
Percent Change from Baseline in AM and PM Combined Nasal Symptom Score: Congestion, Mean (Day 5): −18.92%
Percent Change from Baseline in AM and PM Combined Nasal Symptom Score: Congestion, Median (Day 5): −16.67%
Percent Change from Baseline in AM and PM Combined Nasal Symptom Score: Itchy Nose, LS Mean (Day 5): −24.75%
Percent Change from Baseline in AM and PM Combined Nasal Symptom Score: Itchy Nose, Mean (Day 5): −24.24%
Percent Change from Baseline in AM and PM Combined Nasal Symptom Score: Itchy Nose, Median (Day 5): −15.49%
Percent Change from Baseline in AM and PM Combined Nasal Symptom Score: Runny Nose, LS Mean (Day 5): −18.46%
Percent Change from Baseline in AM and PM Combined Nasal Symptom Score: Runny Nose, Mean (Day 5): −18.42%
Percent Change from Baseline in AM and PM Combined Nasal Symptom Score: Runny Nose, Median (Day 5): −11.76%
Percent Change from Baseline in AM and PM Combined Nasal Symptom Score: Sneezing, LS Mean (Day 5): −33.21%
Percent Change from Baseline in AM and PM Combined Nasal Symptom Score: Sneezing, Mean (Day 5): −32.23%
Percent Change from Baseline in AM and PM Combined Nasal Symptom Score: Sneezing, Median (Day 5): −25.23%
Change from Baseline in AM and PM Combined Nasal Symptom Score: Congestion, LS Mean (Day 6): −1.04
Change from Baseline in AM and PM Combined Nasal Symptom Score: Congestion, Mean (Day 6): −1.09
Change from Baseline in AM and PM Combined Nasal Symptom Score: Congestion, Median (Day 6): −0.92
Change from Baseline in AM and PM Combined Nasal Symptom Score: Itchy Nose, LS Mean (Day 6): −1.14
Change from Baseline in AM and PM Combined Nasal Symptom Score: Itchy Nose, Mean (Day 6): −1.14
Change from Baseline in AM and PM Combined Nasal Symptom Score: Itchy Nose, Median (Day 6): −0.73
Change from Baseline in AM and PM Combined Nasal Symptom Score: Runny Nose, LS Mean (Day 6): −0.94
Change from Baseline in AM and PM Combined Nasal Symptom Score: Runny Nose, Mean (Day 6): −0.95
Change from Baseline in AM and PM Combined Nasal Symptom Score: Runny Nose, Median (Day 6): −1.00
Change from Baseline in AM and PM Combined Nasal Symptom Score: Sneezing, LS Mean (Day 6): −1.27
Change from Baseline in AM and PM Combined Nasal Symptom Score: Sneezing, Mean (Day 6): −1.26
Change from Baseline in AM and PM Combined Nasal Symptom Score: Sneezing, Median (Day 6): −1.30
Percent Change from Baseline in AM and PM Combined Nasal Symptom Score: Congestion, LS Mean (Day 6): −18.26%
Percent Change from Baseline in AM and PM Combined Nasal Symptom Score: Congestion, Mean (Day 6): −18.97%
Percent Change from Baseline in AM and PM Combined Nasal Symptom Score: Congestion, Median (Day 6): −18.37%
Percent Change from Baseline in AM and PM Combined Nasal Symptom Score: Itchy Nose, LS Mean (Day 6): −24.98%
Percent Change from Baseline in AM and PM Combined Nasal Symptom Score: Itchy Nose, Mean (Day 6): −25.00%
Percent Change from Baseline in AM and PM Combined Nasal Symptom Score: Itchy Nose, Median (Day 6): −15.49%
Percent Change from Baseline in AM and PM Combined Nasal Symptom Score: Runny Nose, LS Mean (Day 6): −18.89%
Percent Change from Baseline in AM and PM Combined Nasal Symptom Score: Runny Nose, Mean (Day 6): −18.89%
Percent Change from Baseline in AM and PM Combined Nasal Symptom Score: Runny Nose, Median (Day 6): −21.74%
Percent Change from Baseline in AM and PM Combined Nasal Symptom Score: Sneezing, LS Mean (Day 6): −32.36%
Percent Change from Baseline in AM and PM Combined Nasal Symptom Score: Sneezing, Mean (Day 6): −31.52%
Percent Change from Baseline in AM and PM Combined Nasal Symptom Score: Sneezing, Median (Day 6): −28.00%
Change from Baseline in AM and PM Combined Nasal Symptom Score: Congestion, LS Mean (Day 7): −1.17
Change from Baseline in AM and PM Combined Nasal Symptom Score: Congestion, Mean (Day 7): −1.23
Change from Baseline in AM and PM Combined Nasal Symptom Score: Congestion, Median (Day 7): −1.00
Change from Baseline in AM and PM Combined Nasal Symptom Score: Itchy Nose, LS Mean (Day 7): −1.18
Change from Baseline in AM and PM Combined Nasal Symptom Score: Itchy Nose, Mean (Day 7): −1.17
Change from Baseline in AM and PM Combined Nasal Symptom Score: Itchy Nose, Median (Day 7): −0.90
Change from Baseline in AM and PM Combined Nasal Symptom Score: Runny Nose, LS Mean (Day 7): −0.93
Change from Baseline in AM and PM Combined Nasal Symptom Score: Runny Nose, Mean (Day 7): −0.95
Change from Baseline in AM and PM Combined Nasal Symptom Score: Runny Nose, Median (Day 7): −1.07
Change from Baseline in AM and PM Combined Nasal Symptom Score: Sneezing, LS Mean (Day 7): −1.76
Change from Baseline in AM and PM Combined Nasal Symptom Score: Sneezing, Mean (Day 7): −1.75
Change from Baseline in AM and PM Combined Nasal Symptom Score: Sneezing, Median (Day 7): −1.55
Percent Change from Baseline in AM and PM Combined Nasal Symptom Score: Congestion, LS Mean (Day 7): −21.14%
Percent Change from Baseline in AM and PM Combined Nasal Symptom Score: Congestion, Mean (Day 7): −22.02%
Percent Change from Baseline in AM and PM Combined Nasal Symptom Score: Congestion, Median (Day 7): −18.37%
Percent Change from Baseline in AM and PM Combined Nasal Symptom Score: Itchy Nose, LS Mean (Day 7): −26.35%
Percent Change from Baseline in AM and PM Combined Nasal Symptom Score: Itchy Nose, Mean (Day 7): −25.83%
Percent Change from Baseline in AM and PM Combined Nasal Symptom Score: Itchy Nose, Median (Day 7): −21.57%
Percent Change from Baseline in AM and PM Combined Nasal Symptom Score: Runny Nose, LS Mean (Day 7): −18.66%
Percent Change from Baseline in AM and PM Combined Nasal Symptom Score: Runny Nose, Mean (Day 7): −18.92%
Percent Change from Baseline in AM and PM Combined Nasal Symptom Score: Runny Nose, Median (Day 7): −25.00%
Percent Change from Baseline in AM and PM Combined Nasal Symptom Score: Sneezing, LS Mean (Day 7): −40.66%
Percent Change from Baseline in AM and PM Combined Nasal Symptom Score: Sneezing, Mean (Day 7): −39.73%
Percent Change from Baseline in AM and PM Combined Nasal Symptom Score: Sneezing, Median (Day 7): −38.78%
Change from Baseline in AM and PM Combined Nasal Symptom Score: Congestion, LS Mean (Day 8): −1.24
Change from Baseline in AM and PM Combined Nasal Symptom Score: Congestion, Mean (Day 8): −1.27
Change from Baseline in AM and PM Combined Nasal Symptom Score: Congestion, Median (Day 8): −1.00
Change from Baseline in AM and PM Combined Nasal Symptom Score: Itchy Nose, LS Mean (Day 8): −1.15
Change from Baseline in AM and PM Combined Nasal Symptom Score: Itchy Nose, Mean (Day 8): −1.12
Change from Baseline in AM and PM Combined Nasal Symptom Score: Itchy Nose, Median (Day 8): −0.83
Change from Baseline in AM and PM Combined Nasal Symptom Score: Runny Nose, LS Mean (Day 8): −1.23
Change from Baseline in AM and PM Combined Nasal Symptom Score: Runny Nose, Mean (Day 8): −1.25
Change from Baseline in AM and PM Combined Nasal Symptom Score: Runny Nose, Median (Day 8): −1.00
Change from Baseline in AM and PM Combined Nasal Symptom Score: Sneezing, LS Mean (Day 8): −1.74
Change from Baseline in AM and PM Combined Nasal Symptom Score: Sneezing, Mean (Day 8): −1.73
Change from Baseline in AM and PM Combined Nasal Symptom Score: Sneezing, Median (Day 8): −1.55
Percent Change from Baseline in AM and PM Combined Nasal Symptom Score: Congestion, LS Mean (Day 8): −22.22%
Percent Change from Baseline in AM and PM Combined Nasal Symptom Score: Congestion, Mean (Day 8): −22.68%
Percent Change from Baseline in AM and PM Combined Nasal Symptom Score: Congestion, Median (Day 8): −18.64%
Percent Change from Baseline in AM and PM Combined Nasal Symptom Score: Itchy Nose, LS Mean (Day 8): −25.37%
Percent Change from Baseline in AM and PM Combined Nasal Symptom Score: Itchy Nose, Mean (Day 8): −24.80%
Percent Change from Baseline in AM and PM Combined Nasal Symptom Score: Itchy Nose, Median (Day 8): −18.92%
Percent Change from Baseline in AM and PM Combined Nasal Symptom Score: Runny Nose, LS Mean (Day 8): −24.85%
Percent Change from Baseline in AM and PM Combined Nasal Symptom Score: Runny Nose, Mean (Day 8): −24.97%
Percent Change from Baseline in AM and PM Combined Nasal Symptom Score: Runny Nose, Median (Day 8): −25.00%
Percent Change from Baseline in AM and PM Combined Nasal Symptom Score: Sneezing, LS Mean (Day 8): −38.54%
Percent Change from Baseline in AM and PM Combined Nasal Symptom Score: Sneezing, Mean (Day 8): −37.78%
Percent Change from Baseline in AM and PM Combined Nasal Symptom Score: Sneezing, Median (Day 8): −33.33%

— patent publication US8758816B2, “Compositions comprising azelastine and methods of use thereof” (priority 2004, dated 2014)
